Broadly, the EC90 is the point of the concentration-response curve where the effect stands at 90%.

Data on 3 compounds can be found in patent US20260335274A1, “COMPOSITIONS AND METHODS OF MINIMIZING LONG COVID” (priority 2022, published 2026).

One series has as its system SARS-CoV-2. The following applies: one-hour incubation; cited from earlier work.
For series [1] the following is noted: in vivo, cited from earlier work.
Series [2] is described as follows: Cytotoxicity of F18m in normal saline, MTT assay. The series is classed as cell-based. To be noted: human, hnepc; EC16m in saline formulation, 60 min exposure; read-out: concentration not toxic to HNEpC. Here is the method:
The F18m glycerol stock was diluted 10× with normal saline to 1.4 mM of EC16m. A series dilution of this nanoformulation in Airway Growth Medium was applied to a monolayer of Human […] Primary Epithelial Cells (HNPEC, PromoCell) and incubated for 1 h before medium change and overnight incubation, followed by straining with an MTT assay.

Series [3] has as its system OC43 human coronavirus. Put plainly: Post-infection test, MRC-5 cells, TCID50. The series is classed as cell-based, human coronavirus OC43 (MRC-5 human cells as host). The following applies: 10 min exposure; for inhibition at 50 µM: read-out: titer reduction, post-infection. As to the method:
Then, 100 μl of either EC16 formulations or Remdesivir solutions of various concentrations were applied onto the cells for 10 min before being replaced by serum-free EMEM. The TCID50 values were determined after incubation for 4-7 days.

Series [4] concerns OC43 human coronavirus. Put plainly: Pre-infection test, MRC-5 cells, TCID50. It counts as cell-based, human coronavirus OC43 (MRC-5 human cells as host). The following applies: MRC5, 10 min; 50 μM EC16m, 10 min incubation before virus; read-out: reduction in viral infectivity, pre-infection. Here is the method: EC16m nasal formulations were incubated with MRC-5 cells in 96 well plates for 10 min, and then removed. A series dilution of OC43 in serum-free EMEM was added to the cells and incubated for 1 h. The viral dilutions were then replaced with serum-free EMEM, and TCID50 infection rate was determined after 4-7 days of incubation.

For series [5], the system named is OC43 human coronavirus. Put plainly: Direct contact (contact inhibition) antiviral test, TCID50. To be noted: Betacoronavirus 1, OC43, MRC5, in Homo sapiens, 0.5 h, read-out: reduction of OC43 infectivity.

Structures are written as SMILES.

For `O=C(O[C@@H]1Cc2c(O)cc(O)cc2O[C@@H]1c1cc(O)c(O)c(O)c1)c1cc(O)c(O)c(O)c1` [EGCG, epigallocatechin-3-gallate], in the series with SARS-CoV-2, the EC90 is 69 µM. Also, the bioavailability result in series [1] is reported as “very low”. Besides, in series [1] (read-out: serum maximum concentration), the Cmax is 570 nM.
Turning to `CCCCCCCCCCCCCCCC(=O)Oc1c(O)cc(C2Oc3cc(O)cc(O)c3CC2OC(=O)c2cc(O)c(O)c(O)c2)cc1O` (centres unmarked) [EC16m, Epigallocatechin-3-Gallate-mono-palmitate], the MNTC at 1 h in series [2] is less than 280 µM. Further, in the series with OC43 human coronavirus [3] (12.5 μM EC16m), the “inhibition of viral replication, post-infection” value was determined as 99%. Besides, in the series with OC43 human coronavirus [3] (MRC5, 10 min, 12.5 μM EC16m, read-out: inhibition of viral replication, post-infection), the inhibition at 12.5 µM was greater than 99%. Besides, the inhibition at 50 µM in the series with OC43 human coronavirus [3] (MRC5, 10 min, 50 μM) was 99.8%; in the series on OC43 human coronavirus [4] it was 98.5%; in the series on OC43 human coronavirus [5], 99.9%.
`CCC(CC)COC(=O)[C@H](C)N[P@](=O)(OC[C@H]1O[C@@](C#N)(c2ccc3c(N)ncnn23)[C@H](O)[C@@H]1O)Oc1ccccc1` [remdesivir, reference compound]: in the series with OC43 human coronavirus [3] (MRC5, 10 min, 50 μM), the inhibition at 50 µM came to 99.8%. Besides, the log reduction at 50 µM in the series on OC43 human coronavirus [3] (MRC5, 10 min, 50 μM, n=4, read-out: log10 titer reduction, post-infection) came out at 2.69 ± 0.24.
